Measured values reported in PubChem BioAssay AID2060910 (Molecular Pharmacology Branch, DTP, NCI, 2025).
Each block holds one molecule with its values, some of them ahead of it.

Tested on: 242566-281-R-J2-PDC complex spheroid viability
Assay: Anticancer human tumor 242566-281-R-J2-PDC patient-derived pancreatic carcinoma cell line growth inhibition [RAS]
Conditions: for IC50: curve of first compound; for viability, T/C: stronger effect = lower value
Outline: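 Multi-cell-type spheroids: tumor cells plus HUVEC endothelial cells and mesenchymal stem cells. RAS-pathway inhibitors were combined with targeted agents, each dosed in half-log steps down from clinical Cmax, or from 10 microM when Cmax was unknown.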
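Also: spheroids exposed to compound for 7 days before readout.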
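For viability, T/C in this document: 100% = DMSO vehicle control wells.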

- IC50 (second compound 0.000949 µM): 14.5 nM
- IC50 (second compound 0.003 µM): 6.76 nM
- IC50 (second compound 0.00949 µM): < 0.949 nM
- IC50 (second compound 0.03 µM): < 0.949 nM
- IC50 (second compound 0.0949 µM): < 0.949 nM
- IC50 (second compound 0.3 µM): < 0.949 nM
SMILES: CCc1c2c(nc3ccc(O)cc13)-c1cc3c(c(=O)n1C2)COC(=O)[C@]3(O)CC + CCn1c(-c2cc(N3CCN(C)CC3)cnc2C(C)OC)c2c3cc(ccc31)-c1csc(n1)CC(NC(=O)C1CC1C)C(=O)N1CCCC(N1)C(=O)OCC(C)(C)C2
- viability, T/C (second compound 0.000949 µM, first compound 0.000949 µM): 101%
- viability, T/C (second compound 0.000949 µM, first compound 0.003 µM): 89%
- viability, T/C (second compound 0.000949 µM, first compound 0.00949 µM): 49.6%
- viability, T/C (second compound 0.000949 µM, first compound 0.03 µM): 40.2%
- viability, T/C (second compound 0.000949 µM, first compound 0.0949 µM): 22.3%
- viability, T/C (second compound 0.000949 µM, first compound 0.3 µM): 9.11%
- viability, T/C (second compound 0.003 µM, first compound 0.000949 µM): 92.3%
- viability, T/C (second compound 0.003 µM, first compound 0.003 µM): 62.8%
- viability, T/C (second compound 0.003 µM, first compound 0.00949 µM): 43.8%
- viability, T/C (second compound 0.003 µM, first compound 0.03 µM): 29.8%
- viability, T/C (second compound 0.003 µM, first compound 0.0949 µM): 19.4%
- viability, T/C (second compound 0.003 µM, first compound 0.3 µM): 8.62%
- viability, T/C (second compound 0.00949 µM, first compound 0.000949 µM): 48.8%
- viability, T/C (second compound 0.00949 µM, first compound 0.003 µM): 39.1%
- viability, T/C (second compound 0.00949 µM, first compound 0.00949 µM): 38.8%
- viability, T/C (second compound 0.00949 µM, first compound 0.03 µM): 24.8%
- viability, T/C (second compound 0.00949 µM, first compound 0.0949 µM): 17.9%
- viability, T/C (second compound 0.00949 µM, first compound 0.3 µM): 12.2%
- viability, T/C (second compound 0.03 µM, first compound 0.000949 µM): 33%
- viability, T/C (second compound 0.03 µM, first compound 0.003 µM): 32.8%
- viability, T/C (second compound 0.03 µM, first compound 0.00949 µM): 27%
- viability, T/C (second compound 0.03 µM, first compound 0.03 µM): 21.1%
- viability, T/C (second compound 0.03 µM, first compound 0.0949 µM): 13.9%
- viability, T/C (second compound 0.03 µM, first compound 0.3 µM): 11.9%
- viability, T/C (second compound 0.0949 µM, first compound 0.000949 µM): 22.9%
- viability, T/C (second compound 0.0949 µM, first compound 0.003 µM): 24.1%
- viability, T/C (second compound 0.0949 µM, first compound 0.00949 µM): 21.8%
- viability, T/C (second compound 0.0949 µM, first compound 0.03 µM): 15.9%
- viability, T/C (second compound 0.0949 µM, first compound 0.0949 µM): 11.2%
- viability, T/C (second compound 0.0949 µM, first compound 0.3 µM): 9.7%
- viability, T/C (second compound 0.3 µM, first compound 0.000949 µM): 22.7%
- viability, T/C (second compound 0.3 µM, first compound 0.003 µM): 20.4%
- viability, T/C (second compound 0.3 µM, first compound 0.00949 µM): 18.1%
- viability, T/C (second compound 0.3 µM, first compound 0.03 µM): 12.5%
- viability, T/C (second compound 0.3 µM, first compound 0.0949 µM): 13.3%
- viability, T/C (second compound 0.3 µM, first compound 0.3 µM): 8.58%

- IC50 (second compound 0.000949 µM): > 1000 nM
- IC50 (second compound 0.003 µM): > 1000 nM
- IC50 (second compound 0.00949 µM): > 1000 nM
- IC50 (second compound 0.03 µM): > 1000 nM
- IC50 (second compound 0.0949 µM): 983 nM
- IC50 (second compound 0.3 µM): 754 nM
SMILES: C=CC(=O)Nc1cc(Nc2nccc(-c3cn(C)c4ccccc34)n2)c(OC)cc1N(C)CCN(C)C + CCn1c(-c2cccnc2C(C)OC)c2c3cc(ccc31)N1CCOC(CC(NC(=O)C(C(C)C)N(C)C(=O)C3(F)CCN(C(=O)C#CC(C)(C)N(C)C)CC3)C(=O)N3CCCC(N3)C(=O)OCC(C)(C)C2)C1
- viability, T/C (second compound 0.000949 µM, first compound 0.00316 µM): 87.8%
- viability, T/C (second compound 0.000949 µM, first compound 0.01 µM): 107%
- viability, T/C (second compound 0.000949 µM, first compound 0.0316 µM): 82.5%
- viability, T/C (second compound 0.000949 µM, first compound 0.1 µM): 91%
- viability, T/C (second compound 0.000949 µM, first compound 0.316 µM): 86.7%
- viability, T/C (second compound 0.000949 µM, first compound 1 µM): 50.3%
- viability, T/C (second compound 0.003 µM, first compound 0.00316 µM): 131%
- viability, T/C (second compound 0.003 µM, first compound 0.01 µM): 95%
- viability, T/C (second compound 0.003 µM, first compound 0.0316 µM): 92.2%
- viability, T/C (second compound 0.003 µM, first compound 0.1 µM): 84.3%
- viability, T/C (second compound 0.003 µM, first compound 0.316 µM): 89.8%
- viability, T/C (second compound 0.003 µM, first compound 1 µM): 47.2%
- viability, T/C (second compound 0.00949 µM, first compound 0.00316 µM): 119%
- viability, T/C (second compound 0.00949 µM, first compound 0.01 µM): 95.8%
- viability, T/C (second compound 0.00949 µM, first compound 0.0316 µM): 82.8%
- viability, T/C (second compound 0.00949 µM, first compound 0.1 µM): 102%
- viability, T/C (second compound 0.00949 µM, first compound 0.316 µM): 77.4%
- viability, T/C (second compound 0.00949 µM, first compound 1 µM): 51.1%
- viability, T/C (second compound 0.03 µM, first compound 0.00316 µM): 97.6%
- viability, T/C (second compound 0.03 µM, first compound 0.01 µM): 95.3%
- viability, T/C (second compound 0.03 µM, first compound 0.0316 µM): 99.1%
- viability, T/C (second compound 0.03 µM, first compound 0.1 µM): 93.6%
- viability, T/C (second compound 0.03 µM, first compound 0.316 µM): 66%
- viability, T/C (second compound 0.03 µM, first compound 1 µM): 52.2%
- viability, T/C (second compound 0.0949 µM, first compound 0.00316 µM): 98.5%
- viability, T/C (second compound 0.0949 µM, first compound 0.01 µM): 98.7%
- viability, T/C (second compound 0.0949 µM, first compound 0.0316 µM): 99.2%
- viability, T/C (second compound 0.0949 µM, first compound 0.1 µM): 83.5%
- viability, T/C (second compound 0.0949 µM, first compound 0.316 µM): 61.3%
- viability, T/C (second compound 0.0949 µM, first compound 1 µM): 49.5%
- viability, T/C (second compound 0.3 µM, first compound 0.00316 µM): 94.9%
- viability, T/C (second compound 0.3 µM, first compound 0.01 µM): 86.9%
- viability, T/C (second compound 0.3 µM, first compound 0.0316 µM): 78%
- viability, T/C (second compound 0.3 µM, first compound 0.1 µM): 70.4%
- viability, T/C (second compound 0.3 µM, first compound 0.316 µM): 56.5%
- viability, T/C (second compound 0.3 µM, first compound 1 µM): 47.8%
